Patent publication US12011444B2, “N-substituted indole derivatives as PGE2 receptor modulators” (Idorsia Pharmaceuticals Ltd, priority 2015, dated 2024)

Columns and labels:
EP2 = EP2 (Homo sapiens (Human), UniProt P43116);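 note: antagonism of PGE2-stimulated cAMP accumulation in SF295 human glioblastoma cells with endogenous EP2, cAMP read by HTRF, expressed relative to DMSO control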
EP4 = EP4 (Homo sapiens (Human), UniProt P35408); assay: hEP4 cAMP assay (BT549 breast cancer cells, HTRF cAMP); type: cell-based; settings: antagonistic activity; mean values where measured multiple times
Sequence of EP4 (P35408 whole entry): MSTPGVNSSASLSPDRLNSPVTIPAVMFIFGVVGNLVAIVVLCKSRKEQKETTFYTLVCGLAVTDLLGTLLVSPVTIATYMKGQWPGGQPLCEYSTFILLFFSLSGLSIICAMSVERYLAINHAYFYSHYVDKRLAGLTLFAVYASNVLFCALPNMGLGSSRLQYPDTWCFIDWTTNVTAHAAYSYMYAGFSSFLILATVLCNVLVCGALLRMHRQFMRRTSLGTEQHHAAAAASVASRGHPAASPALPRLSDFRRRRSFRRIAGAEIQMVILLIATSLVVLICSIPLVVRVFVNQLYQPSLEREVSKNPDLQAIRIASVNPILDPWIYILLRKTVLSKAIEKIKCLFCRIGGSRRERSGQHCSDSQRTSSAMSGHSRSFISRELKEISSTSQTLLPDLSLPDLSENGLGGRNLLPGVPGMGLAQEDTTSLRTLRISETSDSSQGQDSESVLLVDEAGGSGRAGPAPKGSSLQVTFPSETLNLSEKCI
Description: Plate is pre-incubated 45 minutes at room temperature. Subsequently, 2.5 microliters of PGE2 (final conc. 6 nM) are transferred into the assay plate. Plate is incubated 30 minutes at room temperature.

Sequence of EP2 (P43116 whole entry): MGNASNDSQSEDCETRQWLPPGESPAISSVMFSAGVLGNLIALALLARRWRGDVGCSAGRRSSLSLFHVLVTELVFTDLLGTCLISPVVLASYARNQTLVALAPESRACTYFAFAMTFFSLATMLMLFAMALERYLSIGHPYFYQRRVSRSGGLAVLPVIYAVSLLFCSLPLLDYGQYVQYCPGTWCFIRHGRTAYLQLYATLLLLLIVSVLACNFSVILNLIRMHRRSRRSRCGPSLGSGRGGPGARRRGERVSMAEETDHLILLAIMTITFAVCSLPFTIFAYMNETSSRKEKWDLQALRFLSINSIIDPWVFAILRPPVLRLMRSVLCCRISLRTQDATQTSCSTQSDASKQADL

Row | IC50 (EP2) | IC50 (EP4) | Compound
1 | 26 nM | 313 nM | COc1ccc(F)c2c1cc(C)n2CCNc1cc(-c2ccc(C(=O)O)c(Oc3ccc(F)cc3)c2)ncn1 [compound 654]
2 | 888 nM | 480 nM | COc1ccc(F)c2c1cc(C)n2CCNc1cc(-c2ccc(Cn3cccn3)c(F)c2)ncn1 [compound 457]
3 | 85 nM | 240 nM | CCCc1cc(-c2cc(NCCn3c(C)cc4cc(Cl)cc(F)c43)ncn2)cc(Cl)c1C(=O)O [compound 427]
4 | 6 nM | 162 nM | COc1cc(-c2cc(NCCn3c(C)cc4c(OC)ccc(F)c43)ncn2)ccc1-c1nnn[nH]1 [compound 683, [2-(7-Fluoro-4-methoxy-2-methyl-indol-1-yl)-ethyl]-{6-[3-methoxy-4-(1H-tetrazol-5-yl)-phenyl]-pyrimidin-4-yl}-amine]
5 | 54 nM | 259 nM | COc1ccc(F)c2c1cc(C)n2CCNc1cc(-c2ccc3c(c2)CN(CC(C)C)C3=O)ncn1 [compound 475]
6 | 14 nM | 445 nM | CCOc1cc(-c2cc(NCCn3c(C)cc4c5c(cc(Cl)c43)OCO5)ncn2)ccc1C(=O)O [compound 454, 4-{6-[2-(5-Chloro-7-methyl-[1,3]dioxolo[4,5-e]indol-6-yl)-ethylamino]-pyrimidin-4-yl}-2-ethoxy-benzoic acid]
7 | 3 nM | 88 nM | CCCCOc1cc(-c2cc(NCCn3c(C)cc4c(C)ccc(F)c43)ncn2)ccc1C(=O)O [compound 533]
8 | 8 nM | 99 nM | CCCOc1cc(-c2cc(NCCn3c(C)cc4c(OC)ccc(F)c43)ncn2)ccc1C(=O)O [compound 496]
9 | 71 nM | 189 nM | CCOc1cc(-c2cc(NCCn3c(C)cc4c(C)cc(F)c(F)c43)ncn2)cc(F)c1-c1nnn[nH]1 [compound 657]
10 | 95 nM | 465 nM | Cc1cnoc1-c1ccc(-c2cc(NCCn3c(C)cc4c(C)cc(F)cc43)ncn2)cc1 [compound 734]
11 | 8 nM | 134 nM | CCCCOc1cc(-c2cc(NCCn3c(C)cc4c(C)cc(F)cc43)ncn2)ccc1C(=O)O [compound 527]
12 | 3 nM | 178 nM | CCNc1cc(-c2cc(NCCn3c(C)cc4c(OC)cccc43)ncn2)cc(F)c1C(=O)O [compound 398]
13 | 36 nM | 276 nM | Cc1cc(F)cc2c1cc(C)n2CCNc1cc(-c2ccc3ccncc3c2)ncn1 [compound 731]
14 | 26 nM | 118 nM | Cc1cc(F)cc2c1cc(C)n2CCNc1cc(-c2ccc(-c3cnc(N)o3)cc2)ncn1 [compound 552]
15 | 7 nM | 21 nM | COc1ccc(F)c2c1cc(C)n2CCNc1cc(-c2ccc(-c3cnc(N)o3)cc2)ncn1 [compound 573]
16 | 7 nM | 40 nM | CCNc1cc(-c2cc(NCCn3c(C)cc4c(OC)ccc(Cl)c43)ncn2)ccc1-c1nnn[nH]1 [compound 666, [2-(7-Chloro-4-methoxy-2-methyl-indol-1-yl)-ethyl]-{6-[3-ethylamino-4-(1H-tetrazol-5-yl)-phenyl]-pyrimidin-4-yl}-amine]
17 | 31 nM | 257 nM | Cc1cc2c(Cl)ccc(Cl)c2n1CCNc1cc(-c2ccc(C(=O)O)c(SC(C)C)c2)ncn1 [compound 424]
18 | 61 nM | 33 nM | CCCOc1cc(-c2cc(NCCn3c(C)cc4c(OC)cc(F)c(F)c43)ncn2)cc(Cl)c1C(=O)O [compound 638]
19 | 14 nM | 247 nM | Cc1cc2c(Cl)cc(Cl)cc2n1CCNc1cc(-c2ccc(-c3noc(=O)[nH]3)cc2)ncn1 [compound 681, 3-(4-{6-[2-(4,6-Dichloro-2-methyl-indol-1-yl)-ethylamino]-pyrimidin-4-yl}-phenyl)-4H-[1,2,4]oxadiazol-5-one]
20 | 22 nM | 52 nM | Cc1nc(-c2ccc(-c3cc(NCCn4c(C)cc5c(C)cc(F)c(F)c54)ncn3)cc2)c[nH]1 [compound 575]
21 | 20 nM | 609 nM | CCCOc1cc(-c2cc(NCCn3c(C)cc4c(OC)cccc43)ncn2)cc(F)c1C(=O)O [compound 498]
22 | 21 nM | 119 nM | CCCOc1cc(-c2cc(NCCn3c(C)cc4c(OC)cc(F)cc43)ncn2)ccc1C(=O)O [compound 493]
23 | 6 nM | 61 nM | Cc1nc(-c2ccc(-c3cc(NCCn4c(C)cc5c(C)cc(F)cc54)ncn3)cc2)c[nH]1 [compound 548]
24 | 23 nM | 37 nM | COc1cc(F)c(F)c2c1cc(C)n2CCNc1cc(-c2ccc(-c3cnc(N)o3)cc2)ncn1 [compound 639]
25 | 6 nM | 54 nM | COc1cc(F)c(F)c2c1cc(C)n2CCNc1cc(-c2ccc(C(=O)O)c(NCC(F)(F)F)c2)ncn1 [compound 644, 4-{6-[2-(6,7-Difluoro-4-methoxy-2-methyl-indol-1-yl)-ethylamino]-pyrimidin-4-yl}-2-(2,2,2-trifluoro-ethylamino)-benzoic acid]
26 | 63 nM | 232 nM | Cc1cc(F)cc2c1cc(C)n2CCNc1cc(-c2ccc(-c3cncn3C)cc2)ncn1 [compound 547]

Row | IC50 (EP2) | IC50 (EP4) | Compound
27 | 149 nM | 114 nM | Cc1cc(F)c(F)c2c1cc(C)n2CCNc1cc(-c2ccc(C(=O)O)c(CC(C)C)c2)ncn1 [compound 502]
28 | 12 nM | 234 nM | CCCc1cc(-c2cc(NCCn3c(C)cc4c(OC)ccc(Cl)c43)ncn2)ccc1C(=O)O [compound 442]
29 | 39 nM | 91 nM | COc1c(F)cc(Cl)c2c1cc(C)n2CCNc1cc(-c2ccc3c(=O)[nH][nH]c3c2)ncn1 [Example 782, 6-{6-[2-(7-Chloro-5-fluoro-4-methoxy-2-methyl-indol-1-yl)-ethylamino]-pyrimidin-4-yl}-1,2-dihydro-indazol-3-one]
30 | 9 nM | 16 nM | CNc1nnc(-c2ccc(-c3cc(NCCn4c(C)cc5c(OC)cc(F)cc54)ncn3)cc2)s1 [compound 645]
31 | 8 nM | 69 nM | CCCc1cc(-c2cc(NCCn3c(C)cc4c(OC)ccc(F)c43)ncn2)cc(F)c1C(=O)O [compound 515]
32 | 29 nM | 55 nM | CCCc1cc(-c2cc(NCCn3c(C)cc4c(C)ccc(F)c43)ncn2)cc(Cl)c1C(=O)O [compound 413]
33 | 90 nM | 795 nM | COc1cc(F)cc2c1cc(C)n2CCNc1cc(-c2ccc(-c3nc(C)c(C)s3)cc2)ncn1 [Example 760, {6-[4-(4,5-Dimethyl-thiazol-2-yl)-phenyl]-pyrimidin-4-yl}-[2-(6-fluoro-4-methoxy-2-methyl-indol-1-yl)-ethyl]-amine]
34 | 35 nM | 141 nM | CCCOc1cc(-c2cc(NCCn3c(C)cc4c(C)cc(F)cc43)ncn2)cc(Cl)c1C(=O)O [compound 523]
35 | 21 nM | 80 nM | COc1cc(F)cc2c1cc(C)n2CCNc1cc(-c2ccc3c(ccn3C)c2)ncn1 [compound 705, [2-(6-Fluoro-4-methoxy-2-methyl-indol-1-yl)-ethyl]-[6-(1-methyl-1H-indol-5-yl)-pyrimidin-4-yl]-amine]
36 | 160 nM | 948 nM | COc1ccc(F)c2cc(C)n(CCNc3cc(-c4ccc(C(=O)O)c(CC(C)C)c4)ncn3)c12 [compound 539]
37 | 21 nM | 350 nM | CCCOc1cc(-c2cc(NCCn3c(C)cc4c(OC)ccc(Cl)c43)ncn2)ccc1C(=O)O [compound 495]
38 | 21 nM | 671 nM | Cc1cc2c(F)cc(F)c(F)c2n1CCNc1cc(-c2ccc(C(=O)O)c(CC(C)C)c2)ncn1 [compound 505]
39 | 25 nM | 618 nM | CCOc1cc(-c2cc(NCCn3c(C)cc4c(OC)ccc(F)c43)nc(C)n2)ccc1C(=O)O [compound 494]
40 | 35 nM | 199 nM | CCCc1cc(-c2cc(NCCn3c(C)cc4cc(C)cc(F)c43)ncn2)cc(Cl)c1C(=O)O [compound 414]
41 | 28 nM | 27 nM | COc1cc(F)cc2c1cc(C)n2CCNc1cc(-c2cc(C(F)(F)F)c(C(=O)O)s2)ncn1 [compound 447]
42 | 190 nM | 42 nM | COc1ccc(F)c2c1cc(C)n2CCNc1cc(-c2ccc(-c3cc(C(=O)O)[nH]n3)cc2)ncn1 [compound 594]
43 | 19 nM | 272 nM | CCCOc1cc(-c2cc(NCCn3c(C)cc4c(C)cc(F)cc43)ncn2)ccc1C(=O)O [compound 439]
44 | 47 nM | 177 nM | Cc1ccc(F)c2c1cc(C)n2CCNc1cc(-c2ccc3c(ccn3C)c2)ncn1 [compound 704, [2-(7-Fluoro-2,4-dimethyl-indol-1-yl)-ethyl]-[6-(1-methyl-1H-indol-5-yl)-pyrimidin-4-yl]-amine]
45 | 110 nM | 684 nM | COc1c(F)cc(Cl)c2c1cc(C)n2CCNc1cc(-c2cc(F)c(C(=O)O)c(SC)c2)ncn1 [compound 509]
46 | 8 nM | 251 nM | COc1ccc(F)c2c1cc(C)n2CCNc1cc(-c2ccc(-c3ccno3)cc2)ncn1 [compound 744, [2-(7-Fluoro-4-methoxy-2-methyl-indol-1-yl)-ethyl]-[6-(4-isoxazol-5-yl-phenyl)-pyrimidin-4-yl]-amine]
47 | 773 nM | 309 nM | CCCc1cc(-c2cc(NCCn3c(C)cc4c(OC(F)(F)F)ccc(F)c43)ncn2)ccc1C(=O)O [compound 570]
48 | 1 nM | 65 nM | CCNc1cc(-c2cc(NCCn3c(C)cc4c(OC)ccc(Cl)c43)ncn2)ccc1C(=O)O [compound 396]
49 | 38 nM | 14 nM | COc1cc(F)c(F)c2c1cc(C)n2CCNc1cc(-c2cc(C(F)(F)F)c(C(=O)O)s2)ncn1 [compound 525]
50 | 16 nM | 8 nM | COc1ccc(F)c2c1cc(C)n2CCNc1cc(-c2cc(C(F)(F)F)c(C(=O)O)s2)ncn1 [compound 446]
51 | 9 nM | 52 nM | COc1cc(F)cc2c1cc(C)n2CCNc1cc(-c2ccc(-c3csc(C(=O)O)n3)cc2)ncn1 [compound 578]
52 | 228 nM | 707 nM | CCOc1cc(-c2cc(NCCn3c(C)cc4c(OC)ccc(F)c43)ncn2)ccc1CNCCOC [compound 589]
